For 22 compounds, IC50 results are on record in patent US11970474B2, “Substituted benzodiazoles and use thereof in therapy” (THOMAS HELLEDAYS STIFTELSE FÖR MEDICINSK FORSKNING, priority 2018, dated 2024).

By IC50 is commonly meant the concentration that gives 50% inhibition. High values mean a need for much substance, low ones inhibition by little substance.

For this test, the target named is OGG1 (Homo sapiens (Human), UniProt O15527). Put plainly: In vitro OGG1 activity assay. The class given is biochemical. The note with it: 800 pM OGG1 enzyme, 2 nM human APEX1, 10 nM 8-oxoA:C substrate. The essentials: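 Fluorescence-release assay on a duplex oligonucleotide carrying an OGG1 substrate base beside a fluorophore, quenched from the complementary strand. Excess APEX1 cleaves the abasic site left by base excision, melting the duplex and unquenching the fluorophore. Compounds in DMSO were dispensed before enzyme and substrate, and fluorescein signal was read.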
OGG1, sequence (O15527 whole entry): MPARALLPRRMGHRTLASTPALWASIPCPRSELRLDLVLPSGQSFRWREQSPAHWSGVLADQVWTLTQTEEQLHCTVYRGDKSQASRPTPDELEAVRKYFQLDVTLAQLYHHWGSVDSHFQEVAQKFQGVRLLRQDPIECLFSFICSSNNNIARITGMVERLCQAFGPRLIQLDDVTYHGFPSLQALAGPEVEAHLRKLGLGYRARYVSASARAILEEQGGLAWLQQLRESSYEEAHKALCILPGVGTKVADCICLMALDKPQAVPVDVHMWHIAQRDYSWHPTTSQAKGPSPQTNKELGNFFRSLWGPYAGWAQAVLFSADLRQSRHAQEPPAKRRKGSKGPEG
Compound `COc1cc(NC(=O)[C@H]2CC[C@@H](n3c(=O)[nH]c4c(N5CCOCC5)cccc43)CC2)ccc1C` [Example 241, Cis-N-(3-methoxy-4-methylphenyl)-4-[4-(morpholin-4-yl)-2-oxo-2,3-dihydro-1H-1,3-benzodiazol-1-yl]cyclohexane-1-carboxamide] came in with a half-inhibitory concentration (IC50) of 960 nM.

With `O=c1[nH]c2c(Br)cccc2n1[C@H]1CC[C@@H](C(=O)Nc2ccc(OC(F)(F)F)c(Cl)c2)CC1` [Example 134, (Cis)-4-(4-bromo-2-oxo-2,3-dihydro-1H-1,3-benzodiazol-1-yl)-N-[3-chloro-4-(trifluoromethoxy)phenyl]cyclohexane-1-carboxamide], the concentration for half-maximal inhibition (IC50) is 2740 nM.

For `COc1ccc(NC(=O)N2CCC(n3c(=O)[nH]c4cc(C)ccc43)CC2)cc1Cl` [Example 179, N-(3-Chloro-4-methoxyphenyl)-4-(5-methyl-2-oxo-2,3-dihydro-1H-1,3-benzodiazol-1-yl)piperidine-1-carboxamide], inhibition was half-maximal at 1570 nM (IC50). This IC50 is about 1.7-fold lower than that of the compound before.

As for `O=c1[nH]c2c(Br)cccc2n1[C@H]1CC[C@@H](C(=O)Nc2ccc(C(F)(F)F)c(F)c2)CC1` [Example 137, (Cis)-4-(4-bromo-2-oxo-2,3-dihydro-1H-1,3-benzodiazol-1-yl)-N-[3-fluoro-4-(trifluoromethyl)phenyl]cyclohexane-1-carboxamide], half-maximal inhibition (IC50) required 2030 nM.

Compound `COc1cc(NC(=O)[C@H]2CC[C@@H](n3c(=O)[nH]c4c(NC(=O)CCN)cccc43)CC2)ccc1C` [Example 284, Cis-4-[4-(3-aminopropanamido)-2-oxo-2,3-dihydro-1H-1,3-benzodiazol-1-yl]-N-(3-methoxy-4-methylphenyl)cyclohexane-1-carboxamide] yielded an IC50 of 1.73 nM.

Regarding `COc1cc(NC(=O)[C@H]2CC[C@@H](n3c(=O)[nH]c4c(C(=O)NCC5COCCN5)cccc43)CC2)ccc1C` (stereo partly drawn) [Example 292, N-[(Morpholin-3-yl)methyl]-2-oxo-1-[cis-4-[(3-methoxy-4-methylphenyl)carbamoyl]cyclohexyl]-2,3-dihydro-1H-1,3-benzodiazole-4-carboxamide], inhibition was half-maximal at 0.37 nM (IC50).

`N#Cc1cc(NC(=O)[C@H]2CC[C@@H](n3c(=O)[nH]c4c(Br)cccc43)CC2)ccc1Cl` [Example 157, (Cis)-4-(4-bromo-2-oxo-2,3-dihydro-1H-1,3-benzodiazol-1-yl)-N-(4-chloro-3-cyanophenyl)cyclohexane-1-carboxamide] had an IC50 of 152 nM.

In turn, `COc1cc(NC(=O)[C@H]2CC[C@@H](n3c(=O)[nH]c4c(C(=O)NCCCN)cccc43)CC2)ccc1C` [Example 265, N-(3-Aminopropyl)-2-oxo-1-[cis-4-[(3-methoxy-4-methylphenyl)carbamoyl]cyclohexyl]-2,3-dihydro-1H-1,3-benzodiazole-4-carboxamide] returned an IC50 of 0.28 nM.

As to `COc1cc(NC(=O)[C@H]2CC[C@@H](n3c(=O)[nH]c4c(C(=O)NC5CNC5)cccc43)CC2)ccc1C` [Example 293, N-(Azetidin-3-yl)-2-oxo-1-[cis-4-[(3-methoxy-4-methylphenyl)carbamoyl]cyclohexyl]-2,3-dihydro-1H-1,3-benzodiazole-4-carboxamide], it took 1.42 nM to reach half-maximal inhibition (IC50).

`COc1cc(NC(=O)[C@H]2CC[C@@H](n3c(=O)[nH]c4c(NC(=O)c5coc(N)n5)cccc43)CC2)ccc1C` [Example 320, 2-Amino-N-{2-oxo-1-[cis-4-[(3-methoxy-4-methylphenyl)carbamoyl]cyclohexyl]-2,3-dihydro-1H-1,3-benzodiazol-4-yl}-1,3-oxazole-4-carboxamide] returned an IC50 of 22 nM. Against the preceding compound, the IC50 is about 15-fold higher.

`O=C(Nc1ccc(Cl)c(Cl)c1)N1CCC(n2c(=O)[nH]c3c(O)cccc32)CC1` [Example 9, N-(3,4-dichlorophenyl)-4-(4-hydroxy-2-oxo-2,3-dihydro-1H-1,3-benzodiazol-1-yl)piperidine-1-carboxamide] showed an IC50 of 796 nM.

Regarding `O=C(Nc1ccc(I)c(Cl)c1)N1CCC(n2c(=O)[nH]c3cc(Cl)ccc32)CC1` [Example 17, 4-(5-Chloro-2-oxo-2,3-dihydro-1H-1,3-benzodiazol-1-yl)-N-(3-chloro-4-iodophenyl)piperidine-1-carboxamide], it took 1420 nM to reach half-maximal inhibition (IC50).

Turning to `O=c1[nH]c2c(Br)cccc2n1[C@H]1CC[C@@H](C(=O)Nc2cncc(Cl)c2)CC1` [Example 188, Cis-4-(4-bromo-2-oxo-2,3-dihydro-1H-1,3-benzodiazol-1-yl)-N-(5-chloropyridin-3-yl)cyclohexane-1-carboxamide], the 50% inhibitory concentration (IC50) is 4630 nM.

Compound `CCCNc1cccc2c1[nH]c(=O)n2C1CCN(C(=O)Nc2ccc(OC)c(Cl)c2)CC1` [Example 175, N-(3-Chloro-4-methoxyphenyl)-4-[2-oxo-4-(propylamino)-2,3-dihydro-1H-1,3-benzodiazol-1-yl]piperidine-1-carboxamide] registered a concentration for half-maximal inhibition (IC50) of 2620 nM.

For `COc1cc(NC(=O)[C@H]2CC[C@@H](n3c(=O)[nH]c4c(OCCOC5CCCCC5)cccc43)CC2)ccc1C` [Example 326, Cis-4-(4-(2-(cyclohexyloxy)ethoxy)-2-oxo-2,3-dihydro-1H-benzo[d]imidazol-1-yl)-N-(3-methoxy-4-methylphenyl)cyclohexanecarboxamide], the IC50 amounted to 118 nM.

For `Cc1nc(NC(=O)N2CCC(n3c(=O)[nH]c4c(Br)cccc43)CC2)ccc1Cl` [Example 111, 4-(4-Bromo-2-oxo-2,3-dihydro-1H-1,3-benzodiazol-1-yl)-N-(5-chloro-6-methylpyridin-2-yl)piperidine-1-carboxamide], the concentration for half-maximal inhibition (IC50) came to 5810 nM.

With `CC(=O)Nc1cccc2c1[nH]c(=O)n2[C@H]1CC[C@@H](C(=O)Nc2ccc3cc[nH]c3c2)CC1` [Example 290, Cis-4-(4-acetamido-2-oxo-2,3-dihydro-1H-1,3-benzodiazol-1-yl)-N-(1H-indol-6-yl)cyclohexane-1-carboxamide], half-maximal inhibition (IC50) was put at 239 nM.

`COc1cc(F)cc(NC(=O)[C@H]2CC[C@@H](n3c(=O)[nH]c4c(Br)cccc43)CC2)c1` [Example 155, (Cis)-4-(4-bromo-2-oxo-2,3-dihydro-1H-1,3-benzodiazol-1-yl)-N-(3-fluoro-5-methoxyphenyl)cyclohexane-1-carboxamide]: the midpoint of inhibition, the IC50, lay at 1820 nM.

The compound `COc1ccc(-c2cccc3c2[nH]c(=O)n3C2CCN(C(=O)Nc3ccc(Cl)c(OC)c3)CC2)cn1` [Example 105, N-(4-chloro-3-methoxyphenyl)-4-[4-(6-methoxypyridin-3-yl)-2-oxo-2,3-dihydro-1H-1,3-benzodiazol-1-yl]piperidine-1-carboxamide] yielded an IC50 of 2940 nM.

Compound `COc1cc(NC(=O)[C@H]2CC[C@@H](n3c(=O)[nH]c4c(N5CCC(N)CC5)cccc43)CC2)ccc1C` [Example 303, Cis-4-[4-(4-aminopiperidin-1-yl)-2-oxo-2,3-dihydro-1H-1,3-benzodiazol-1-yl]-N-(3-methoxy-4-methylphenyl)cyclohexane-1-carboxamide] displayed an IC50 of 10.6 nM.

As for `Cc1ccc(NC(=O)[C@H]2CC[C@@H](n3c(=O)[nH]c4c(Br)cccc43)CC2)nc1` [Example 189, Cis-4-(4-bromo-2-oxo-2,3-dihydro-1H-1,3-benzodiazol-1-yl)-N-(5-methylpyridin-2-yl)cyclohexane-1-carboxamide], half-maximal inhibition (IC50) required 1760 nM.

Take `COc1cc(NC(=O)[C@H]2CC[C@@H](n3c(=O)[nH]c4ncccc43)CC2)ccc1C` [Example 232, Cis-N-(3-methoxy-4-methylphenyl)-4-{2-oxo-1H,2H,3H-imidazo[4,5-b]pyridin-1-yl}cyclohexane-1-carboxamide]: the IC50 turned out to be 109 nM.
